Experiments:
Staphylococcus aureus = experiment: MIC assay using Staphylococcus aureus in trypticase soy broth, growth scored by turbidity; type: cell-based; conditions: for growth (turbidity score): aerobic 37° C., three days; for minimum inhibitory concentration: S. aureus at pH 6.0
Description: (§1) Minimal inhibitory concentration (MIC) assays of several hop compounds were conducted using a Staphylococcus aureus species and vaginal isolates Lactobacillus vaginalias, Lactobacillus crispatus, Lactobacillus gasseri, and Lactobacillus jensenii as test microorganisms. Lactobacillus assays were conducted in Lactobacillus MRS broth (Difco) tubes. A 0.1 ml aliquot of a 1% (w/w) solution of each hop acid in alcohol was added to a tube of sterile MRS broth to give a final concentration of 100 ppm of the hop. This solution was serially diluted in tubes with sterile MRS broth using a two-fold dilution series. A second dilution series prepared as above, but using 0.1 ml alcohol without hop acid, was used as a positive control of bacterial growth. Each tube was inoculated with a fresh culture (10^4 cells) of a Lactobacillus species in MRS broth. The cultures were incubated anaerobically in a CO2 incubator at 28° C. for five days. Growth was evaluated by visually assessing and scoring development of turbidity in the tube of broth.
The MIC assays for Staphylococcus aureus were conducted in Difco trypticase soy broth (TSB) using the same serial dilution technique and the inoculum level as described above. The pH of the TSB was adjusted to pH7.0, pH 6.0, or pH5.0 using hydrochloric acid. The tubes were incubated aerobically at 37° C. for three days and growth was evaluated by visually assessing and scored the development of turbidity in the broth.

Lactobacillus species = experiment: MIC assay using Lactobacillus species (vaginal isolates) in MRS broth, growth scored by turbidity; type: cell-based; conditions: for growth (turbidity score): MRS at pH 6.3, anaerobic 28° C., five days; for concentration as high as which Lactobacillus exhibited strong growth: Lactobacillus species tested
Description: as §1

hexahydro beta acids
growth (turbidity score) (Staphylococcus aureus; 0.2 ppm, TSB at pH 5.0): No growth | growth (turbidity score) (Staphylococcus aureus; 0.2 ppm, TSB at pH 6.0): + Growth | growth (turbidity score) (Staphylococcus aureus; 0.2 ppm, TSB at pH 7.0): +++ Growth | growth (turbidity score) (Staphylococcus aureus; 0.39 ppm, TSB at pH 5.0): No growth | growth (turbidity score) (Staphylococcus aureus; 0.39 ppm, TSB at pH 6.0): No growth | growth (turbidity score) (Staphylococcus aureus; 0.39 ppm, TSB at pH 7.0): ++ Growth | growth (turbidity score) (Staphylococcus aureus; 0.78 ppm, TSB at pH 5.0): No growth | growth (turbidity score) (Staphylococcus aureus; 0.78 ppm, TSB at pH 6.0): No growth | growth (turbidity score) (Staphylococcus aureus; 0.78 ppm, TSB at pH 7.0): + Growth | growth (turbidity score) (Staphylococcus aureus; 1.56 ppm, TSB at pH 5.0): No growth | growth (turbidity score) (Staphylococcus aureus; 1.56 ppm, TSB at pH 6.0): No growth | growth (turbidity score) (Staphylococcus aureus; 1.56 ppm, TSB at pH 7.0): +/− Growth | growth (turbidity score) (Staphylococcus aureus; 3.125 ppm, TSB at pH 5.0): No growth | growth (turbidity score) (Staphylococcus aureus; 3.125 ppm, TSB at pH 6.0): No growth | growth (turbidity score) (Staphylococcus aureus; 3.125 ppm, TSB at pH 7.0): No growth | growth (turbidity score) (Staphylococcus aureus; 6.25 ppm, TSB at pH 5.0): No growth | growth (turbidity score) (Staphylococcus aureus; 6.25 ppm, TSB at pH 6.0): No growth | growth (turbidity score) (Staphylococcus aureus; 6.25 ppm, TSB at pH 7.0): No growth | growth (turbidity score) (Staphylococcus aureus; 12.5 ppm, TSB at pH 5.0): No growth | growth (turbidity score) (Staphylococcus aureus; 12.5 ppm, TSB at pH 6.0): No growth | growth (turbidity score) (Staphylococcus aureus; 12.5 ppm, TSB at pH 7.0): No growth | growth (turbidity score) (Staphylococcus aureus; 25 ppm, TSB at pH 5.0): No growth | growth (turbidity score) (Staphylococcus aureus; 25 ppm, TSB at pH 6.0): No growth | growth (turbidity score) (Staphylococcus aureus; 25 ppm, TSB at pH 7.0): No growth | growth (turbidity score) (Staphylococcus aureus; 50 ppm, TSB at pH 5.0): No growth | growth (turbidity score) (Staphylococcus aureus; 50 ppm, TSB at pH 6.0): No growth | growth (turbidity score) (Staphylococcus aureus; 50 ppm, TSB at pH 7.0): No growth | growth (turbidity score) (Staphylococcus aureus; 100 ppm, TSB at pH 5.0): No growth | growth (turbidity score) (Staphylococcus aureus; 100 ppm, TSB at pH 6.0): No growth | growth (turbidity score) (Staphylococcus aureus; 100 ppm, TSB at pH 7.0): No growth | concentration as low as which S. aureus showed no to very weak growth (Staphylococcus aureus): 1.56 ppm | minimum inhibitory concentration (Staphylococcus aureus): 0.78 ppm | growth (turbidity score) (Lactobacillus species; 0.2 ppm): +++ Growth | growth (turbidity score) (Lactobacillus species; 0.39 ppm): +++ Growth | growth (turbidity score) (Lactobacillus species; 0.78 ppm): +++ Growth | growth (turbidity score) (Lactobacillus species; 1.56 ppm): +++ Growth | growth (turbidity score) (Lactobacillus species; 3.125 ppm): +++ Growth | growth (turbidity score) (Lactobacillus species; 6.25 ppm): +++ Growth | growth (turbidity score) (Lactobacillus species; 12.5 ppm): +++ Growth | growth (turbidity score) (Lactobacillus species; 25 ppm): +/− Growth | growth (turbidity score) (Lactobacillus species; 50 ppm): No growth | growth (turbidity score) (Lactobacillus species; 100 ppm): No growth | concentration as high as which Lactobacillus exhibited strong growth (Lactobacillus species): 12.5 ppm

tetrahydroiso alpha acids
growth (turbidity score) (Staphylococcus aureus; 0.2 ppm, TSB at pH 5.0): No growth | growth (turbidity score) (Staphylococcus aureus; 0.2 ppm, TSB at pH 6.0): ++ Growth | growth (turbidity score) (Staphylococcus aureus; 0.2 ppm, TSB at pH 7.0): +++ Growth | growth (turbidity score) (Staphylococcus aureus; 0.39 ppm, TSB at pH 5.0): No growth | growth (turbidity score) (Staphylococcus aureus; 0.39 ppm, TSB at pH 6.0): +/− Growth | growth (turbidity score) (Staphylococcus aureus; 0.39 ppm, TSB at pH 7.0): ++ Growth | growth (turbidity score) (Staphylococcus aureus; 0.78 ppm, TSB at pH 5.0): No growth | growth (turbidity score) (Staphylococcus aureus; 0.78 ppm, TSB at pH 6.0): No growth | growth (turbidity score) (Staphylococcus aureus; 0.78 ppm, TSB at pH 7.0): + Growth | growth (turbidity score) (Staphylococcus aureus; 1.56 ppm, TSB at pH 5.0): No growth | growth (turbidity score) (Staphylococcus aureus; 1.56 ppm, TSB at pH 6.0): No growth | growth (turbidity score) (Staphylococcus aureus; 1.56 ppm, TSB at pH 7.0): +/− Growth | growth (turbidity score) (Staphylococcus aureus; 3.125 ppm, TSB at pH 5.0): No growth | growth (turbidity score) (Staphylococcus aureus; 3.125 ppm, TSB at pH 6.0): No growth | growth (turbidity score) (Staphylococcus aureus; 3.125 ppm, TSB at pH 7.0): No growth | growth (turbidity score) (Staphylococcus aureus; 6.25 ppm, TSB at pH 5.0): No growth | growth (turbidity score) (Staphylococcus aureus; 6.25 ppm, TSB at pH 6.0): No growth | growth (turbidity score) (Staphylococcus aureus; 6.25 ppm, TSB at pH 7.0): No growth | growth (turbidity score) (Staphylococcus aureus; 12.5 ppm, TSB at pH 5.0): No growth | growth (turbidity score) (Staphylococcus aureus; 12.5 ppm, TSB at pH 6.0): No growth | growth (turbidity score) (Staphylococcus aureus; 12.5 ppm, TSB at pH 7.0): No growth | growth (turbidity score) (Staphylococcus aureus; 25 ppm, TSB at pH 5.0): No growth | growth (turbidity score) (Staphylococcus aureus; 25 ppm, TSB at pH 6.0): No growth | growth (turbidity score) (Staphylococcus aureus; 25 ppm, TSB at pH 7.0): No growth | growth (turbidity score) (Staphylococcus aureus; 50 ppm, TSB at pH 5.0): No growth | growth (turbidity score) (Staphylococcus aureus; 50 ppm, TSB at pH 6.0): No growth | growth (turbidity score) (Staphylococcus aureus; 50 ppm, TSB at pH 7.0): No growth | growth (turbidity score) (Staphylococcus aureus; 100 ppm, TSB at pH 5.0): No growth | growth (turbidity score) (Staphylococcus aureus; 100 ppm, TSB at pH 6.0): No growth | growth (turbidity score) (Staphylococcus aureus; 100 ppm, TSB at pH 7.0): No growth | concentration as low as which S. aureus showed no to very weak growth (Staphylococcus aureus): 1.56 ppm | minimum inhibitory concentration (Staphylococcus aureus): 0.78 ppm | growth (turbidity score) (Lactobacillus species; 0.2 ppm): +++ Growth | growth (turbidity score) (Lactobacillus species; 0.39 ppm): +++ Growth | growth (turbidity score) (Lactobacillus species; 0.78 ppm): +++ Growth | growth (turbidity score) (Lactobacillus species; 1.56 ppm): +++ Growth | growth (turbidity score) (Lactobacillus species; 3.125 ppm): +++ Growth | growth (turbidity score) (Lactobacillus species; 6.25 ppm): +++ Growth | growth (turbidity score) (Lactobacillus species; 12.5 ppm): ++ Growth | growth (turbidity score) (Lactobacillus species; 25 ppm): +/− Growth | growth (turbidity score) (Lactobacillus species; 50 ppm): No growth | growth (turbidity score) (Lactobacillus species; 100 ppm): No growth | concentration as high as which Lactobacillus exhibited strong growth (Lactobacillus species): 12.5 ppm
